Measurements published in PubChem BioAssay AID1963445 (Molecular Pharmacology Branch, DTP, NCI, 2024).

Test system: MCF7 complex spheroid growth, % test/control
Assay: Anticancer human tumor MCF7 cell line growth inhibition [Asc];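 note: spheroids exposed to compounds for 7 days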;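 for viability, T/C: 100% = DMSO vehicle control wells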
Conditions: for IC50: curve of first compound; for viability, T/C: stronger effect = lower value
Procedure: Multicellular complex tumor spheroid response to apoptosis pathway targeting inhibitors Alrizomadlin, Pelcitoclax, and Dasminapant in combination with a variety of drugs and investigational agents in selected tumor cell lines
The MDM2 inhibitor alrizomadlin, the Bcl-2/Bcl-xL inhibitor pelcitoclax, and the IAPs inhibitor dasminapant were evaluated both individually and in combination with standard of care and investigational anticancer small molecules within a complex spheroid model of solid tumors. . Complex spheroids include a stromal component modeled by human endothelial cells (HUVEC) and fibroblasts modeled by human mesenchymal stem cells (MSCs). The concentration ranges selected for each drug and investigational agent were based upon clinically achievable concentrations if the clinical Cmax of the agent was known.
Compounds. The drugs and investigational agents: alrizomadlin (APG-115; NSC831270), pelcitoclax (APG-1252; NSC835773), dasminapant (APG-1387;NSC834197), TAK-243 (NSC785004), copanlisib (NSC809693), olaparib (NSC753686), talazoparib (NSC767125), cobimetinib (NSC 768068), eltanexor (KPT-8602, NSC 794443), abemaciclib (NSC 768073), sotorasib (NSC818433), adagrasib (NSC 831453), MRTX-1133 (NSC 836407), Iadademestat (ORY1001, NSC 806812), and RMC-4630 (NSC839698), were obtained from the NCI Developmental Therapeutics Program Chemical Repository. The FDA-approved anticancer drug set is available from the Developmental Therapeutics Program at https://dtp.cancer.gov/organization/dscb/obtaining/available plates.htm. […] The stock solutions were prepared in dimethyl sulfoxide (DMSO, Sigma-Aldrich, St. Louis, MO, cat. D2650) at 800-fold the tested concentration and stored at -70 degrees C prior to their use. All drugs and investigational agents were tested over a range starting from a high concentration at or near the clinical Cmax and decreasing in half-log increments. If the clinical Cmax for an agent had not been determined, the highest concentration tested was 10 microM.
The patient-derived cancer (PDC) cell lines include five colon adenocarcinomas: 186277-243-T-J2-PDC, 616215-338-R-J1-PDC, 439559-082-T-J2-PDC, 463943-066-T-J2-PDC, and 519858-162-T-J1-PDC; three pancreatic carcinomas: 323965-272-R-J2-PDC, 521955-158-R6-J3-PDC, and 521955-158-R2-J5-PDC; two uterine sarcomas: 327498-152-R-J2-PDC and 993429-296-R-J1-PDC; two rhabdomyosarcomas: 755483-174-R-J1-PDC and 772245-204-R-J1-PDC; two soft tissue sarcomas: 126254-015-R-J1-PDC and 494315-158-R-J1-PDC; two malignant fibrous histiocytomas: 317291-083-R-J1-PDC and 596521-263-R-J1-PDC; two breast carcinomas: 171881-019-R-J1-PDC and 885512-296-R-J2-PDC; and one ovarian carcinoma: 6556581-035-R-J-PDC were obtained from the NCI PDMR, (https://pdmr.cancer.gov). The established cell lines HSSY-2 synovial sarcoma (RRID:CVCL 8719), SYO-1 synovial sarcoma (RRID:CVCL_7146), MPNST malignant peripheral neural sheath tumor were obtained from the Sloan Kettering Institute. The following established cell lines were purchased from the American Type Culture Collection (ATCC, Manassas, VA), Sor the received from the NCI repository:, PANC-1 pancreatic carcinoma (CRL-1469, RRID:CVCL_0480), OVCAR-5 ovarian carcinoma (RRID:CVCL_1628), OVCAR-8 ovarian carcinoma (RRID:CVCL_1629), , MCF-7 breast carcinoma (CRL-12584, RRID:CVCL_0031), MDA-MB-231 breast carcinoma (CRL-12532, RRID:CVCL_0062), NCI-H1876 small cell lung carcinoma (CRL-5902, RRID:CVCL_1503), NCI-H510A small cell lung carcinoma (HTB-184, RRID:CVCL_1565), NCI-H1417 (CRL-5869, RRID:CVCL_1469), and NCI-H196 small cell lung carcinoma (CRL-5823, RRID:CVCL_1509). Dr. Peter Houghton (Greehey Children's Cancer Research Institute, University of Texas Health Science Center, San Antonio, TX) provided Rh-18 rhabdomyosarcoma (RRID:CVCL_1659). Pooled donor human umbilical vein endothelial cells (HUVEC, Lonza, cat. CC-2519) and human mesenchymal stem cells (hMSC, Lonza, cat. PT-2501) were purchased from Lonza (Walkersville, MD).
Cell Culture. […]

[1] = second compound 0.00949 µM, first compound 0.00316 µM
[2] = second compound 0.00949 µM, first compound 0.01 µM
[3] = second compound 0.00949 µM, first compound 0.0316 µM
[4] = second compound 0.00949 µM, first compound 0.1 µM
[5] = second compound 0.00949 µM, first compound 0.316 µM
[6] = second compound 0.00949 µM, first compound 1 µM
[7] = second compound 0.03 µM, first compound 0.00316 µM
[8] = second compound 0.03 µM, first compound 0.01 µM
[9] = second compound 0.03 µM, first compound 0.0316 µM
[10] = second compound 0.03 µM, first compound 0.1 µM
[11] = second compound 0.03 µM, first compound 0.316 µM
[12] = second compound 0.03 µM, first compound 1 µM
[13] = second compound 0.0949 µM, first compound 0.00316 µM
[14] = second compound 0.0949 µM, first compound 0.01 µM
[15] = second compound 0.0949 µM, first compound 0.0316 µM
[16] = second compound 0.0949 µM, first compound 0.1 µM
[17] = second compound 0.0949 µM, first compound 0.316 µM
[18] = second compound 0.0949 µM, first compound 1 µM
[19] = second compound 0.3 µM, first compound 0.00316 µM
[20] = second compound 0.3 µM, first compound 0.01 µM
[21] = second compound 0.3 µM, first compound 0.0316 µM
[22] = second compound 0.3 µM, first compound 0.1 µM
[23] = second compound 0.3 µM, first compound 0.316 µM
[24] = second compound 0.3 µM, first compound 1 µM
[25] = second compound 0.949 µM, first compound 0.00316 µM
[26] = second compound 0.949 µM, first compound 0.01 µM
[27] = second compound 0.949 µM, first compound 0.0316 µM
[28] = second compound 0.949 µM, first compound 0.1 µM
[29] = second compound 0.949 µM, first compound 0.316 µM
[30] = second compound 0.949 µM, first compound 1 µM
[31] = second compound 3 µM, first compound 0.00316 µM
[32] = second compound 3 µM, first compound 0.01 µM
[33] = second compound 3 µM, first compound 0.0316 µM
[34] = second compound 3 µM, first compound 0.1 µM
[35] = second compound 3 µM, first compound 0.316 µM
[36] = second compound 3 µM, first compound 1 µM

CCN1CCN(Cc2ccc(Nc3ncc(F)c(-c4cc(F)c5nc(C)n(C(C)C)c5c4)n3)nc2)CC1 + CCN1C(C(=O)NC23CCC(C(=O)O)(CC2)CC3)C(c2cccc(Cl)c2F)C2(C(=O)Nc3cc(Cl)ccc32)C12CCCCC2
IC50 (second compound 0.00949 µM): > 1000 nM
IC50 (second compound 0.03 µM): > 1000 nM
IC50 (second compound 0.0949 µM): < 3.16 nM
IC50 (second compound 0.3 µM): < 3.16 nM
IC50 (second compound 0.949 µM): < 3.16 nM
IC50 (second compound 3 µM): < 3.16 nM
viability, T/C [1]: 99%
viability, T/C [2]: 112%
viability, T/C [3]: 90.4%
viability, T/C [4]: 92.4%
viability, T/C [5]: 85.6%
viability, T/C [6]: 71.7%
viability, T/C [7]: 120%
viability, T/C [8]: 99.9%
viability, T/C [9]: 88.2%
viability, T/C [10]: 63.7%
viability, T/C [11]: 59%
viability, T/C [12]: 66.1%
viability, T/C [13]: 53.9%
viability, T/C [14]: 45.3%
viability, T/C [15]: 41.8%
viability, T/C [16]: 42.9%
viability, T/C [17]: 40.3%
viability, T/C [18]: 47.1%
viability, T/C [19]: 31.8%
viability, T/C [20]: 30.2%
viability, T/C [21]: 27.7%
viability, T/C [22]: 30.9%
viability, T/C [23]: 34.5%
viability, T/C [24]: 40.2%
viability, T/C [25]: 20.6%
viability, T/C [26]: 17.6%
viability, T/C [27]: 20.5%
viability, T/C [28]: 21.5%
viability, T/C [29]: 24.9%
viability, T/C [30]: 20%
viability, T/C [31]: 13.1%
viability, T/C [32]: 14%
viability, T/C [33]: 14.8%
viability, T/C [34]: 14.6%
viability, T/C [35]: 12.7%
viability, T/C [36]: 13.4%

O=C(c1ccc(F)c(F)c1Nc1ccc(I)cc1F)N1CC(O)([C@@H]2CCCCN2)C1 + CCN1C(C(=O)NC23CCC(C(=O)O)(CC2)CC3)C(c2cccc(Cl)c2F)C2(C(=O)Nc3cc(Cl)ccc32)C12CCCCC2
IC50 (second compound 0.00949 µM): > 1000 nM
IC50 (second compound 0.03 µM): > 1000 nM
IC50 (second compound 0.0949 µM): < 3.16 nM
IC50 (second compound 0.3 µM): < 3.16 nM
IC50 (second compound 0.949 µM): < 3.16 nM
IC50 (second compound 3 µM): < 3.16 nM
viability, T/C [1]: 104%
viability, T/C [2]: 101%
viability, T/C [3]: 111%
viability, T/C [4]: 97.2%
viability, T/C [5]: 94.9%
viability, T/C [6]: 100%
viability, T/C [7]: 105%
viability, T/C [8]: 99.4%
viability, T/C [9]: 93.9%
viability, T/C [10]: 96.6%
viability, T/C [11]: 81.4%
viability, T/C [12]: 63.5%
viability, T/C [13]: 50.6%
viability, T/C [14]: 44%
viability, T/C [15]: 46.5%
viability, T/C [16]: 44.4%
viability, T/C [17]: 44.8%
viability, T/C [18]: 38.7%
viability, T/C [19]: 32.1%
viability, T/C [20]: 28%
viability, T/C [21]: 26.7%
viability, T/C [22]: 26.6%
viability, T/C [23]: 33%
viability, T/C [24]: 24.5%
viability, T/C [25]: 16.4%
viability, T/C [26]: 19.6%
viability, T/C [27]: 14.8%
viability, T/C [28]: 15.3%
viability, T/C [29]: 13.4%
viability, T/C [30]: 13.3%
viability, T/C [31]: 14.3%
viability, T/C [32]: 14.3%
viability, T/C [33]: 9.2%
viability, T/C [34]: 12.3%
viability, T/C [35]: 14.2%
viability, T/C [36]: 11%
